Consider two compounds from publication PMC3526713 (Journal of natural products, 2006).

The structures appear in SMILES notation.

For assay [1], the target named is horse serum butyrylcholinesterase (BChE) (Equus caballus, UniProt P81908).
The target of assay [2] is Electric eel AChE (Electrophorus electricus, UniProt O42275).
Chain of Electric eel AChE (O42275 24-633): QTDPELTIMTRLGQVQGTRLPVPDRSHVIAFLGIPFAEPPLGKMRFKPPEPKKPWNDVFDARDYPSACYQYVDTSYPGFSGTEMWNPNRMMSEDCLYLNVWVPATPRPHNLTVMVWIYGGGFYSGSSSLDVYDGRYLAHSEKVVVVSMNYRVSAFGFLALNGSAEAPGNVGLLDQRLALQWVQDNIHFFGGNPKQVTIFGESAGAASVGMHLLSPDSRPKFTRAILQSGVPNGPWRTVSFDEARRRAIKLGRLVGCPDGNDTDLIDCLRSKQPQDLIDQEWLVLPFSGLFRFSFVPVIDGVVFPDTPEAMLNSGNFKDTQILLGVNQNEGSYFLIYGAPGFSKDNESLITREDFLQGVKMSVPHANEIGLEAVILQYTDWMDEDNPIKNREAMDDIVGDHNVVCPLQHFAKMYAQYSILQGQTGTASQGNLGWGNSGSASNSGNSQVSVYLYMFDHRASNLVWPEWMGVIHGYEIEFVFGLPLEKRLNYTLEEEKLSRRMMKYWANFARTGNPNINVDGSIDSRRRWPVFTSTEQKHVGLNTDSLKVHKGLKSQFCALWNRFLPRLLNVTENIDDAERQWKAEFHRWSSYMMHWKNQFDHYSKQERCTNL

Chain of horse serum butyrylcholinesterase (BChE) (P81908 whole entry): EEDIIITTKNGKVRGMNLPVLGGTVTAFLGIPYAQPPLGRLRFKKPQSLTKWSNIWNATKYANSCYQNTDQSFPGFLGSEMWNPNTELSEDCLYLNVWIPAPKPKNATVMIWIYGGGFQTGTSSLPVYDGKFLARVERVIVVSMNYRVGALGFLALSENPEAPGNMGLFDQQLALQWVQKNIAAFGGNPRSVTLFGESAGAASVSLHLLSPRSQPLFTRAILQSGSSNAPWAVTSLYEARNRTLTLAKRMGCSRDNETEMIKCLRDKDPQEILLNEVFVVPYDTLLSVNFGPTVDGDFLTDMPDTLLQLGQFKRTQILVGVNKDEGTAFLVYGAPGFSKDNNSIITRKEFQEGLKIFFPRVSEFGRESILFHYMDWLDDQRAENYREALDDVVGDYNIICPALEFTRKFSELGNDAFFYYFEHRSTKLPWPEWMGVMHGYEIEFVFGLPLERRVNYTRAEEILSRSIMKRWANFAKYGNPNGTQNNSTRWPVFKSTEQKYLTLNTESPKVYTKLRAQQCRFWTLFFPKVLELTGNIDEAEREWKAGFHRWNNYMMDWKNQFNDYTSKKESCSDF

On to `COc1c(O)cc2c3c1-c1ccccc1C[C@H]3NCC2` [Compound 2, 1-methoxy-5,6,6a,7-tetrahydro-4H-dibenzo[de,g]quinolin-2-ol (6aR)], for which, in assay [1], the “Effect on BChE” value is recorded as “effects on neither AChE nor BChE”. In addition, in assay [2], the “Effect on AChE” value is reported as “effects on neither AChE nor BChE”.

Consider `COc1ccc2c(=O)oc3c(OC)cc(CCN(C)C)c4c(=O)oc1c2c34` [Compound 1, 1-(2-dimethylaminoethyl)-3,8-dimethoxychromeno[5,4,3-cde]chromene-5,10-dione], for which the “Effect on BChE” value in assay [1] is given as “no effect on BChE”.
